Where two headings read alike, the source gives them in different places.
Experiments:
Haspin = target: T1, Haspin (Homo sapiens, UniProt Q8TF76); experiment: Thermal stability shift assay; assay type: binding; conditions: read-out: Tm shift Haspin
T1 construct: purchased in-house (SGC Oxford thermal shift panel)
T1 sequence (Q8TF76 1-798): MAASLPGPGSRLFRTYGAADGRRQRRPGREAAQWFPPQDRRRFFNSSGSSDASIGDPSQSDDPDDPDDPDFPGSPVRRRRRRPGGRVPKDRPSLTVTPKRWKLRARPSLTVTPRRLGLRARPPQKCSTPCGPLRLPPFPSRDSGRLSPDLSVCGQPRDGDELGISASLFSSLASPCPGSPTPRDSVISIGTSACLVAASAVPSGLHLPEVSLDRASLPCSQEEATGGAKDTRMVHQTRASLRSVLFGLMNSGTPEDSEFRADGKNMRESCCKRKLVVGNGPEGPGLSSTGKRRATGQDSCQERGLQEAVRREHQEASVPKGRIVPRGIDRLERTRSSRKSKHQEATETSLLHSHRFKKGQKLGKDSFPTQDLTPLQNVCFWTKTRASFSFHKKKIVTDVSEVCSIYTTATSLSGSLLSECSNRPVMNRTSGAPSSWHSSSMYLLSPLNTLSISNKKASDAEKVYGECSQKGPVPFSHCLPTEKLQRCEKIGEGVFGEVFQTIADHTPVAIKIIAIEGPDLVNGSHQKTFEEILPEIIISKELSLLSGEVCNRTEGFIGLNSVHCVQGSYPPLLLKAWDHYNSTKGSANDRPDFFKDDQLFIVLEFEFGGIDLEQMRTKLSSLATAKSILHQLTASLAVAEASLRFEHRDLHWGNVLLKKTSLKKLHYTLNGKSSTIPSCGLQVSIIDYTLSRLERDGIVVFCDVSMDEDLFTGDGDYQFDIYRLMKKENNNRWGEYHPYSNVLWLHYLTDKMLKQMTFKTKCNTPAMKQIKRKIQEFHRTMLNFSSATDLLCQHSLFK
In short: (§1)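 Each value reflects thermal unfolding of 2 μM protein with 10 μM inhibitor, detected by SyproOrange (1:1000 dilution) fluorescence in 10 mM HEPES pH 7.5, 500 mM NaCl.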

PKD3 = target: T2, PKD3 (Homo sapiens, UniProt O94806); experiment: Thermal stability shift assay; assay type: binding; conditions: read-out: Tm shift PKD3
T2 sequence (O94806 1-890): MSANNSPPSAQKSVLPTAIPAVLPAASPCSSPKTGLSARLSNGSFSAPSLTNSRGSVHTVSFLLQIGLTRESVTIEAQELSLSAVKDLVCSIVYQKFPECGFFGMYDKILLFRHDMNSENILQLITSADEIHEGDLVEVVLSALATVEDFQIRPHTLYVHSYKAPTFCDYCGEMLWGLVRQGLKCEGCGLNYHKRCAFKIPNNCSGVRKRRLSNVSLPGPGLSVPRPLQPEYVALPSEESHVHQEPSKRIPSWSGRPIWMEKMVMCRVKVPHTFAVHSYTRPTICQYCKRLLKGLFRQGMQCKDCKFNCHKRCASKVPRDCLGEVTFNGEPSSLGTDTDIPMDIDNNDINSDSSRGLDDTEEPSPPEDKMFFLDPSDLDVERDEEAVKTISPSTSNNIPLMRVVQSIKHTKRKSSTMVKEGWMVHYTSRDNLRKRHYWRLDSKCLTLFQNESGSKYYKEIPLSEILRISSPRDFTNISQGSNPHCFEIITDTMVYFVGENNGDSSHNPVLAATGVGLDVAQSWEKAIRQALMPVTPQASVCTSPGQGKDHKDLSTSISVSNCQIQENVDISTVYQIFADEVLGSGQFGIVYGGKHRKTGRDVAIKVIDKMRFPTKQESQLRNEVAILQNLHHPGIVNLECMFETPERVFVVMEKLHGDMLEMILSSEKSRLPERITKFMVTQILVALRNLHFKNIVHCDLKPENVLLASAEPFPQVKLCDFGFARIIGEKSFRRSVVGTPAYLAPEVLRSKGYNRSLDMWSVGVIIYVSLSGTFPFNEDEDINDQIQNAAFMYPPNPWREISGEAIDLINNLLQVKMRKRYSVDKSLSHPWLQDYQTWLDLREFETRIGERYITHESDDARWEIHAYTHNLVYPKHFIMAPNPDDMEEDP
In short: as §1

[1] = tested on: panel of 106 kinases / 129 human protein kinases; experiment: Thermal shift assay, kinase panel; assay type: binding; conditions: inhibitor 10 μM
Procedure: Thermal denaturation experiments were carried out in an Mx3005p real-time PCR machine (Agilent) using a protein concentration of 2 μM and an inhibitor concentration of 10 μM. Samples were buffered in 10 mM HEPES (pH 7.5), 500 mM NaCl and a 1:1000 dilution of SyproOrange (Invitrogen). The assay and data evaluation were carried out as described ([Bullock et al., 2005])

[2] = tested on: panel of 71 protein kinases; experiment: Caliper mobility shift enzymatic kinase selectivity screening; assay type: biochemical; conditions: tested 0.1 nM to 10 μM; ATP at KM
Procedure: Enzymatic kinase selectivity screening was carried out using the Caliper mobility shift assay which is based on the difference in capillary electrophoresis mobility of a fluorescent tagged peptide as a result of the addition of a phosphate moiety by the studied kinase. The kinase reactions were started by addition of 4.5 μl substrate mix consisting of ATP and peptide substrate in assay buffer (50 mM HEPES [pH 7.5], 0.02% bovine serum albumin, 1 mM DTT, 0.02% Tween 20, 0.01 mM Na3VO4, 10 mM beta-glycerophosphate) and 4.5 μl enzyme solution in assay buffer. The peptide concentration was 2 μM. Concentrations for the enzyme, as well as for MgCl2 and MnCl2 were adjusted specifically to the requirements of the individual enzyme. ATP concentrations were adjusted to the KM values of the specific enzyme. After incubation for 60 min at 30°C the kinase reactions were stopped by addition of 16 μl stop solution (100 mM HEPES [pH 7.5], 5% DMSO, 0.1% coating reagent [Caliper Lifescience] 10 mM EDTA [pH 8.0], 0.015% BRIJ35). Stopped kinase reactions were analyzed in a LC3000 reader (Caliper Lifescience). Compounds were tested from 0.1 nM to 10 μM in eight steps.

[3] = tested on: phosphorylated SR proteins in HMEC-1 cells; experiment: SR protein phosphorylation, western blotting; assay type: cell-based, human; conditions: TNF-α-stimulated HMEC-1, increasing inhibitor concentration
Procedure: Western blot analysis of samples from cell lysates of inhibited, stimulated, and unstimulated HMEC-1 cells were performed as previously described ([Szotowski et al., 2005]). For detection of phosphorylated SR proteins, monoclonal antibody mAb1H4 (Invitrogen GmbH, Karlsruhe, Germany) was used.

[4] = tested on: flTF and asHTF mRNA in HMEC-1 cells; experiment: TF isoform mRNA expression (RT-PCR)
Procedure: For inhibition experiments, HMEC-1 endothelial cells were switched to EC basal medium (without fetal calf serum) for 1 hr. […] Analysis of the TF isoform mRNA expression was done 1 hr post stimulation with TNF-α and assessment of the phosphorylation state of SR proteins by western blotting was performed 2 min post induction of the cells. Positive controls were stimulated only with TNF-α, and negative controls were untreated.

Compound	ΔTm at 10 µM (Haspin)	ΔTm at 10 µM (PKD3)	Interaction in thermal shift screen, panel of 106 kinases [1]	ΔTm at 10 µM (Haspin; inhibitor 10 μM)	ΔTm at 10 µM (PKD3; inhibitor 10 μM)	Inhibition of panel of 71 protein kinases [2]	Dose response of SRp75 and SRp55 phosphorylation [3]	TNF-α-induced mRNA expression of flTF and asHTF ([4]; HMEC-1, 10 μM inhibitor, 10 ng/ml TNF-α, 1 hr post stimulation)	Basal mRNA expression of flTF and asHTF ([4]; resting HMEC-1, 10 μM inhibitor)
CCOC(=O)c1c(C(C#N)=CN)c2ccc(Cl)c(Cl)c2n1C (mixture of isomers) [KH-CB20, (E/Z)-Ethyl 3-(2-Amino-1-Cyanovinyl)-6,7-Dichloro-1-Methyl-1H-Indole-2-Carboxylate]	1.8 °C	0.3 °C							
CCOC(=O)c1c(C(C#N)=CN(C)C)c2ccc(Cl)c(Cl)c2n1C (mixture of isomers) [compound 2, (E/Z)-Ethyl 6,7-Dichloro-3-[1-Cyano-2-(Dimethylamino)Vinyl]-1-Methyl-1H-Indole-2-Carboxylate]			showed only interaction with CLK family members	0.2 °C	0 °C				
NC1=NC(=O)/C(=C2\CCNC(=O)c3[nH]c(Br)cc32)N1 [Hymenialdisine, hymenialdisine, reference compound]				3.9 °C	2 °C				
CCOC(=O)c1c(/C(C#N)=C\N)c2ccc(Cl)c(Cl)c2n1C [KH-CB19, (E)-Ethyl 3-(2-Amino-1-Cyanovinyl)-6,7-Dichloro-1-Methyl-1H-Indole-2-Carboxylate]	2.1 °C	0.1 °C				No additional kinases from the panel were inhibited	significantly reduced at increasing concentration of the inhibitor	lowered TNF-α-induced expression of both TF mRNA splice variants to baseline	significantly reduced the basal expression of flTF as well as asHTF
Cn1c2c(Cl)c(Cl)ccc2c2c(C#N)c[nH]c(=O)c21 [compound 3, 7,8-Dichloro-9-Methyl-1-Oxo-2,9-Dihydro-1H-Pyrido[3,4-b]Indole-4-Carbonitrile]			showed only interaction with CLK family members	2.1 °C	0.4 °C				

Source: publication PMC3145970, “Specific CLK Inhibitors from a Novel Chemotype for Regulation of Alternative Splicing” (Chemistry & Biology, 2011)
